# Data as given in patent US20210085743A1, “SARRACENIA-BASED TOPICAL COMPOSITIONS AND METHODS OF USE THEREOF” (Aubio Life Sciences, LLC, priority 2019, published 2021).
# Columns and labels:
# [1] = test system: mycobacteria; conditions: from methanolic extracts of Sarracenia purpurea; cited from earlier work
# [2] = test system: cancer cells including melanoma; conditions: various types of cancer cells including melanoma; cited from earlier work
# [3] = test system: THP-1 cells; assay: TLR agonist-induced IL-8 and TNF-α release (ELISA) in THP-1 cells; type: cell-based, human; conditions: control wells, 24 h
# Experimental: Naïve THP-1 cells were exposed for 24 to the TLR3 agonist poly(I:C) (100 μg/ml), to the TLR7/8 agonist imidazoquinoline (1 μg/m1), to the TLR9 agonist Class A CpG oligonucleotide 5 μM, and to LPS from Escherichia coli serotype 0127:B8 10 ng/ml in the presence or absence of three not cytotoxic concentrations of the extract. IL-8 and TNF-α were measured by ELISA as reference cytokines. Three independent experiments will be conducted. A statistically significant difference versus control cells was considered relevant.
# Naïve THP-1 cells were exposed for 24 to poly(I:C) 100 μg/ml, imidazoquinoline (Imid) 1 μg/ml, or LPS 10 ng/ml in the presence or absence of three concentrations of the extract 0.1, 0.5 and 1.0 mg/ml). IL-8 release was measured by ELISA.
# Naïve THP-1 cells were exposed for 24 to poly(I:C) 100 μg/ml, imidazoquinoline (Imid) 1 μg/ml, or LPS 10 ng/ml in the presence or absence of three concentrations of the extract 0.1, 0.5 and 1.0 mg/ml). TNF-α release was measured by ELISA.
# [4] = test system: herpes; conditions: guinea pig, topical, as infrequently as once weekly; cited from earlier work
# [5] = test system: Reconstructed human epithelium (RhE); assay: Cytokine release (ELISA) in SDS-damaged reconstructed human epithelium; type: cell-based; conditions: SDS vs untreated control group
# Experimental: (§1) Reconstructed human epithelium (RhE) was damaged by exposure to SDS 0.15% for 1 h, then 25 μL of the final Sarracenia formulation (Gel B) was applied. Cell viability by the MTT assay (FIG. 1), and cytokine release, specifically, IL-1α, IL-6, IL-8 and G-CSF release measured using ELISA (FIG. 2), were evaluated 24 h later. Each treatment was run in triplicate. A statistically significant (Tukey's multiple comparison test) recovery in cell viability and cytokine release compared to SDS treated inserts was considered as indicator of repair capacity. FIG. 2 (legend): Evaluation of cytokine production. Each value represents the mean±SD, n=3. Statistical analysis was performed with Tukey's multiple comparison test with *p<0.05 vs Control and § vs SDS treated group.
# [6] = test system: Reconstructed human epithelium (RhE); assay: MTT cell viability in SDS-damaged reconstructed human epithelium; type: cell-based; conditions: SDS 0.15% for 1 h, MTT 24 h later
# Experimental: as §1, with “capacity.” for “capacity. FIG. 2 (legend): Evaluation of cytokine production. Each value represents the mean±SD, n=3. Statistical analysis was performed with Tukey's multiple comparison test with *p<0.05 vs Control and § vs SDS treated group.”
# Each value represents the mean±SD, n=3. **p<0.01 vs control. The dotted line is set at the level of cytotoxicity obtained following SDS damage.
# FIG. 1 (legend): Sarracenia extract formulation improve cellular viability in a skin irritant model. The results obtained on cell viability (MTT assay) are reported. Each value represents the mean±SD, n=3. Statistical analysis was performed with Tukey's multiple comparison test with **p<0.01 vs Control. The dotted line is set at the level of cytotoxicity obtained following SDS damage.
compound,measurement,setting,value
C=C(C)[C@@H]1CC[C@]2(C=O)CC[C@]3(C)[C@H](CC[C@@H]4[C@@]5(C)CC[C@H](O)C(C)(C)[C@@H]5CC[C@]43C)[C@@H]12 [betulinaldehyde],antimycobacterial activity,[1],responsible for the antimycobacterial activity
C=C(C)[C@@H]1CC[C@]2(C)CC[C@]3(C)[C@H](CC[C@@H]4[C@@]5(C)CC[C@H](O)C(C)(C)[C@@H]5CC[C@]43C)[C@@H]12 [lupeol],anti-tumor activity,[2],anti-tumor activity
C=C(C)[C@@H]1CC[C@]2(CO)CC[C@]3(C)[C@H](CC[C@@H]4[C@@]5(C)CC[C@H](O)C(C)(C)[C@@H]5CC[C@]43C)[C@@H]12 [betulin],anti-tumor activity,[2],anti-tumor activity
Poly(I:C),IL-8 release by TLR agonist alone,[3],induced
C[C@H]1[C@H](C)CC[C@]2(C(=O)O)CC[C@]3(C)C(=CC[C@@H]4[C@@]5(C)CC[C@H](O)C(C)(C)[C@@H]5CC[C@]43C)[C@H]12 [ursolic acid],antimycobacterial activity,[1],responsible for the antimycobacterial activity
"CCOCc1nc2c(N)nc3ccccc3c2n1CC(C)(C)O [Resiquimod, 4-amino-2-ethoxymethyl-α,α-dimethyl-1H-imidazo [4,5-c]quinoline-1-ethanol]",recurrences of herpes after therapy,[4],reduces recurrences of herpes
CCCCCCCCCCCCOS(=O)(=O)[O-].[Na+] [SDS],IL-1α release,[5],increase
same,IL-8 release,[5],increase
same,cell viability after SDS damage,[6],below 50%
c1cnc2c(c1)ccc1nc[nH]c12 [imidazoquinoline],IL-8 release by TLR agonist alone,[3],induced
